In patent publication US20230286960A1, “ALLOSTERIC CHROMENONE INHIBITORS OF PHOSPHOINOSITIDE 3-KINASE (PI3K) FOR THE TREATMENT OF DISEASE” (Petra Pharma Corporation, priority 2020, published 2023):
pIC50: −log10 of the molar value.

target: human full length PIK3CA wild-type (p110α/p85α) (Homo sapiens (Human), UniProt P42336); assay: PI3K-alpha kinase (PIK3CA) activity, wild-type, Transcreener ADP2 FI assay; conditions: PI3K-α (PIK3CA) biochemical
Description: (§1) PI3K-Alpha Kinase (PIK3CA) Activity, Wild-Type and H1047R Mutant and Determining IC50 Values for Inhibitors
(§2) Recombinant, catalytically active human full length PIK3KA Wild-type and H1047R mutant were purchased as 1:1 complex of N-terminal 6× his tagged p110 ? (catalytic) and untagged p85 ? (regulatory subunit) from EMD Millipore Sigma (cat. no. 14-602M and 14-792M, respectively). The enzyme stocks were diluted to 5× stocks in buffer (20 mM HEPES pH 7.4, 100 mM NaCl, 0.5 mM EGTA, 0.01% triton-x-100) just before use. PIP2diC8 (Avanti Polar Lipids Inc., cat. no. 850185) or phosphoinositol-4,5-bisphosphate with phosphoserine (PIP2:PS) membrane (Thermo Fisher Scientific, cat. no. PV5100) was used as lipid substrates. PIP2diC8 lyophilized powder and PIP2:PS (1:19) membrane stock (1 mM in PIP2) were separately dissolved in milliQ water to a concentration of 250 uM and stored in −20° C. 10 mM stocks of compounds were serially diluted (3×) in neat DMSO and stored in a dessicator at room temperature. 5× compound stocks in 25% DMSO were prepared fresh from neat DMSO stocks.
(§3) Wild-type (WT) and H1047R mutant protein, along with buffer components (except ATP), were incubated with or without compound at 27° C. for 1 h. After incubation, the reaction was initiated by the addition of 5 uL of 125 uM ATP. A typical assay mixture (25 uL) comprised 40 mM HEPES buffer, pH 7.4, 25 mM MgCl2, 0.01% v/v triton-X-100, 5% v/v DMSO, 20 mM NaCl, 1-5 nM wt or H1047R, 25 uM ATP, and 50 uM PIP2diC8 or PIP2 in membrane. The reaction was allowed to proceed until about […] (2.5 uM ADP) after which time, 10 uL of reaction mixture was quenched with 25 uL of transcreener reagent (Transcreener ADP2 FI assay kit, BellBrook labs, Cat. No. 3013). The contents were incubated at rt for 1 h and fluorescence was measured using a plate reader (Paradigm, Molecular Devices). The same assay was also run at pH 6.0 or 6.4 using MOPS buffer (Fisher BioReagents, CAS 1132-61-2). A calibration curve was generated under identical buffer conditions with varying ADP amounts. Using that, the observed fluorescence was converted to uM ADP. A plot between [ADP] and log[I] yielded the dose-response curves that enabled the calculation of IC50s.

human full length PIK3CA wild-type (p110α/p85α), sequence (P42336 whole entry): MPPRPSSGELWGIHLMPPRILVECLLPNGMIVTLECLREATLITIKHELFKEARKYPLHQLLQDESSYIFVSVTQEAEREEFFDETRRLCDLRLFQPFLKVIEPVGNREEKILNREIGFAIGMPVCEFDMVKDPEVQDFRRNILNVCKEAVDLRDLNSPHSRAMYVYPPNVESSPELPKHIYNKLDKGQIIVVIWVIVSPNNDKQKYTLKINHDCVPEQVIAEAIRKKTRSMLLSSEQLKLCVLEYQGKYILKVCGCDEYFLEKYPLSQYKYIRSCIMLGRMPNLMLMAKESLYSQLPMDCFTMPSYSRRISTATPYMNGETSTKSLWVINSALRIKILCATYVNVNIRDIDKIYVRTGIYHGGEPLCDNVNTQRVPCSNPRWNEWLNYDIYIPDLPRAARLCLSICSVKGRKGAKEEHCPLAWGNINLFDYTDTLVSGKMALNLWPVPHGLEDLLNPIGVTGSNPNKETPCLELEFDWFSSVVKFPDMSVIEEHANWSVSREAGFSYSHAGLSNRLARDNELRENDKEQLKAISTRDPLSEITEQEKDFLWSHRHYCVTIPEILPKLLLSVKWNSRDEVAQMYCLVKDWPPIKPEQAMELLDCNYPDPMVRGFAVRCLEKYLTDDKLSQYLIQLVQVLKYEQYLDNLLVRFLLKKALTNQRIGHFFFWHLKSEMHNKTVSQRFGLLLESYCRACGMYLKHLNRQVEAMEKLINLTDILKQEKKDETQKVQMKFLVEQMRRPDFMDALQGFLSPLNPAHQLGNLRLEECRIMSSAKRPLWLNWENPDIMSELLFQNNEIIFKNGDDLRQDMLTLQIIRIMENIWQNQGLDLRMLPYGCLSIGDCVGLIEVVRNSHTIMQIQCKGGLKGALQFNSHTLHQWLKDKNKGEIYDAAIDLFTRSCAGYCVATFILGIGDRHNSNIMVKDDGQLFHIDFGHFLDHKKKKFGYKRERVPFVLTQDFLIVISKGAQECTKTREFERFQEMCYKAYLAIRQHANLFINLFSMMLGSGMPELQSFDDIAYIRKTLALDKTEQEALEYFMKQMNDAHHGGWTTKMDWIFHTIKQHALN
human full length PIK3CA wild-type (p110α/p85α), sequence (P27986 whole entry partner): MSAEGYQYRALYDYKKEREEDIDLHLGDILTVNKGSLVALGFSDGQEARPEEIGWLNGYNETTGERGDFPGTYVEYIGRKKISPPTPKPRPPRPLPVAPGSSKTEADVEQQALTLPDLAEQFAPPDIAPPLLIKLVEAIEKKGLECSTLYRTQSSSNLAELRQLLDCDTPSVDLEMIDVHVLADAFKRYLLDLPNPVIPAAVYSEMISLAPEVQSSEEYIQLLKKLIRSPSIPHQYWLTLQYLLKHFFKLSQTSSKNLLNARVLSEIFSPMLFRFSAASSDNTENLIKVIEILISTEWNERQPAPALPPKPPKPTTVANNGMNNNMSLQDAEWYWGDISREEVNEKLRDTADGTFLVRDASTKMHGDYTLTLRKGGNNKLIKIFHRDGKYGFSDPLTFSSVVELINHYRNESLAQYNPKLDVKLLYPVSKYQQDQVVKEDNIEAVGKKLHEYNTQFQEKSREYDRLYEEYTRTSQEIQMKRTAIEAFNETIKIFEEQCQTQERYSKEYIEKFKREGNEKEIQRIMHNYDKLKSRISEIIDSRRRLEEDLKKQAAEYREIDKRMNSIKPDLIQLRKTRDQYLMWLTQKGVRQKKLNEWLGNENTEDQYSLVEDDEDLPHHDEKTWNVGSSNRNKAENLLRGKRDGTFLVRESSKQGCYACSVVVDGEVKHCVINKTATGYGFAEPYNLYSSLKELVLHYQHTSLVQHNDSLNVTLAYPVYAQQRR

Compound | pIC50
Cc1cc(C(C)Nc2ccccc2C(=O)O)c2oc(N3CCCC4(CNC(=O)C4)C3)cc(=O)c2c1 (stereo not drawn) [Example 61, 2-[1-[6-Methyl-4-oxo-2-(3-oxo-2,7-diazaspiro[4.5]decan-7-yl)chromen-8-yl]ethylamino]benzoic acid] | < 5.00
CCNc1cc(=O)c2cc(C)cc(C(C)Nc3ccccc3C(=O)O)c2o1 (stereo not drawn) [Example 126, 2-[1-[2-(Ethylamino)-6-methyl-4-oxo-chromen-8-yl]ethylamino]benzoic acid] | < 5.00
CNC(=O)C1CCN(c2cc(=O)c3cc(C)cc(C(C)Nc4ccccc4C(=O)O)c3o2)CC1 (stereo not drawn) [Example 371, 2-[1-[6-Methyl-2-[4-(methylcarbamoyl)-1-piperidyl]-4-oxo-chromen-8-yl]ethylamino]benzoic acid] | < 5.00
Cc1cc(C(C)Nc2ccccc2C(=O)O)c2oc(NC34CC5CC(CC(CO)(C5)C3)C4)cc(=O)c2c1 (stereo not drawn) [Example 169] | < 5.00
Cc1cc(C(C)Nc2ccsc2C(=O)O)c2oc(N3CCC(C)(C)CC3)cc(=O)c2c1 (stereo not drawn) [Example 39, 3-[1-[2-(4,4-Dimethyl-1-piperidyl)-6-methyl-4-oxo-chromen-8-yl]ethylamino]thiophene-2-carboxylic acid] | < 5.00

More lines, now with the values ahead:

pIC50 | Compound
< 5.00 | Cc1cc(C(C)Nc2ccccc2C(=O)O)c2oc(N3CC(N(C)C)C3)cc(=O)c2c1 (stereo not drawn) [Example 68, 2-[1-[2-[3-(Dimethylamino)azetidin-1-yl]-6-methyl-4-oxo-chromen-8-yl]ethylamino]benzoic acid]
< 5.00 | Cc1cc(C(C)Nc2ccccc2C(=O)O)c2oc(N3CC4CCC(C3)O4)cc(=O)c2c1 (stereo not drawn) [Example 82, 2-[1-[6-Methyl-2-(8-oxa-3-azabicyclo[3.2.1]octan-3-yl)-4-oxo-chromen-8-yl]ethylamino]benzoic acid]
< 5.00 | Cc1cc(C(C)Nc2cccc(F)c2C(=O)O)c2oc(N3Cc4ccc(F)cc4C3)cc(=O)c2c1 (stereo not drawn) [Example 238, 2-Fluoro-6-[1-[2-(5-fluoroisoindolin-2-yl)-6-methyl-4-oxo-chromen-8-yl]ethylamino]benzoic acid]
< 5.00 | COc1ccc(NC(C)c2cc(C)cc3c(=O)cc(N4Cc5ccccc5C4)oc23)c(C(=O)O)n1 (stereo not drawn) [Example 237, 3-[1-(2-Isoindolin-2-yl-6-methyl-4-oxo-chromen-8-yl)ethylamino]-6-methoxy-pyridine-2-carboxylic acid]

target: human full length PIK3CA H1047R mutant (p110α/p85α) (Homo sapiens (Human), UniProt P42336, H1047R); assay: PI3K-alpha kinase (PIK3CA) activity, H1047R mutant, Transcreener ADP2 FI assay; conditions: PI3K-α (PIK3CA) biochemical
Sequence (P42336 whole entry H1047R): as the sequence (P42336 whole entry) above, with H1047R counted along it
Sequence (P27986 whole entry partner): as the sequence (P27986 whole entry partner) above
Description: as §1, §2, §3

Compound | pIC50
Cc1cc([C@@H](C)Nc2ccccc2C(=O)O)c2oc(N3CCCCC3)cc(=O)c2c1 [Example 376, 2-[[(1R)-1-[6-Methyl-4-oxo-2-(1-piperidyl)chromen-8-yl]ethyl]amino]benzoic acid] | > 6.30
Cc1cc(C(C)Nc2ccccc2-c2nnn[nH]2)c2oc(N3CCC(C)(C)CC3)cc(=O)c2c1 (stereo not drawn) [Example 20, 2-(4,4-Dimethyl-1-piperidyl)-6-methyl-8-[1-[2-(1H-tetrazol-5-yl)anilino]ethyl]chromen-4-one] | > 6.30
Cc1cc(C(C)Nc2ccc(Cl)nc2C(=O)O)c2oc(N3Cc4ccc5c(c4C3)OCO5)cc(=O)c2c1 (stereo not drawn) [Example 299, 6-Chloro-3-[1-[2-(6,8-dihydro-[1,3]dioxolo[4,5-e]isoindol-7-yl)-6-methyl-4-oxo-chromen-8-yl]ethylamino]pyridine-2-carboxylic acid] | > 6.30

Further lines, results first:

pIC50 | Compound
> 6.30 | Cc1cc(C(C)Nc2ccccc2C(=O)O)c2oc(N3CCCC(C)(C)C3)cc(=O)c2c1 (stereo not drawn) [Example 65, 2-[1-[2-(3,3-Dimethyl-1-piperidyl)-6-methyl-4-oxo-chromen-8-yl]ethylamino]benzoic acid]
> 6.30 | Cc1cc(C(C)Nc2ccccc2C(=O)O)c2oc(N3CCc4ccccc4C3)cc(=O)c2c1 (stereo not drawn) [Example 233, 2-[1-[2-(3,4-Dihydro-1H-isoquinolin-2-yl)-6-methyl-4-oxo-chromen-8-yl]ethylamino]benzoic acid]
> 6.30 | Cc1cc(C(C)Nc2ccccc2C(=O)O)c2oc(N3Cc4ccc(F)cc4C3)cc(=O)c2c1 (stereo not drawn) [Example 105, 2-[1-[2-(5-Fluoroisoindolin-2-yl)-6-methyl-4-oxo-chromen-8-yl]ethylamino]benzoic acid]
